Data set [1] addresses T1, human DNA topoisomerase II-β (TOPII-β) (Homo sapiens, UniProt Q02880).
T1 construct: own knowledge) MBS#942146
Briefly: In vitro topoisomerase II inhibitory assay (ELISA kit). The format is biochemical. Conditions: ELISA kit MBS#942146; read-out: IC50 against topo II enzyme. The text has this: Doxorubicin was used as a positive control. […] (Supplementary file).
SEM: Standard error of mean
(§1) *: Statistically significant at p ≤ 0.05
Means with any Common letter (a-d) are not significant (OR Means with totally Different letters (a-d) are significant)
Doxorubicin was used as a positive control.
In general terms: In an ELISA, binding on a coated surface is turned into a signal by an enzyme label.

Data set [2] relates to human breast adenocarcinoma (MCF-7). The data set is described as follows: MTT cytotoxicity assay, MCF-7. The format is cell-based. The following applies: for IC50: Homo sapiens, MCF7, MTT, 24 h treatment, read-out: IC50 against MCF-7; for folds more active than doxorubicin: MCF-7; for Selectivity Index (SI): against MCF-7, relative to normal MCF-10a. On the procedure:
(§2) (Supplementary file). Compounds 5b and 5h were screened for their effects on the normal breast cell line MCF‐10a. Cells at a density of 1 × 104 were seeded in a 96‐well plate at 37 °C for 48 h under 5% CO2. After incubation, the cells were treated with different concentrations of the prepared molecules and incubated for 24 h. MTT dye was added after 24 h of drug treatment and incubated for 4 h at 37 °C. Also, 100 μl of dimethyl sulphoxide was added to each well to dissolve the purple formazan formed. The colour intensity of the formazan product, which represents the growth condition of the cells, was quantified using an enzyme‐linked immunosorbent assay (ELISA) plate reader at 570 nm. The experiments were carried out with at least three replicates and they were repeated at least three times.
(§3) All chemicals, solvents, media and kits were purchased from commercial suppliers.
(§4) In vitro anticancer screening […]
(§5) against three cancer cell lines namely: hepatocellular carcinoma (HepG2), human breast adenocarcinoma (MCF-7) and human colon cancer (HCT -116) utilizing MTT assay2. Compounds […]
(§6) 5b and 5h were screened for their effects on the normal breast cell line MCF‐10a. Cells at a density of 1 × 104 were seeded in a 96‐well plate at 37°C for 48 hr under 5% CO2. After incubation, the cells were treated with different concentrations of the prepared molecules and incubated for 24 hr.
(§7) MTT dye was added after 24 h of drug treatment and incubated for 4 h at 37°C. Also, 100 μl of dimethyl sulphoxide was added to each well to dissolve the purple formazan formed. The color intensity of the formazan product, which represents the growth condition of the cells, was quantified using an enzyme‐linked immunosorbent assay (ELISA) plate reader at 570 nm. The experiments were carried out with at least three replicates and they were repeated at least three […]
as §1
(§8) Means with any Common letter (a-e) are not significant (OR Means with totally Different letters (a-e) are significant)

The test system of data set [3] is MCF-7 cells. Briefly: Cell cycle analysis (DNA flow cytometry, PI). The following applies: for Phase of cell cycle arrest: MCF-7, compound at its IC50; for Cell cycle arrest (%) G0-G1 / Cell cycle arrest (%) G2/M / Cell cycle arrest (%) S: MCF-7, compound at its IC50, 24 h. (Flow cytometry measures light scatter and fluorescence of single cells or particles in a stream.)
Procedure: Cell cycle analysis: A FACS Calibur flow cytometer was used to measure the amount of DNA in the cell cycle analysis at 488 nm in accordance with the manufacturer’s recommendations. […] Cells were treated, rinsed twice, and then re-suspended in ice-cold PBS (phosphate buffer saline). After washing, 0.7 ml of 100% ethanol was added, and the mixture was then allowed to sit at 20 °C for 20 min. After washing, 500 μl of RNase was added, and then the mixture was incubated for 30 min. After that, PI was added, and the mixture was incubated without light for 30 min[22]^,[51].
3 Replica for each group Data was expressed using Mean ± SEM.
F: F for One way ANOVA test, Pairwise comparison bet. each 2 groups was done using Post Hoc Test (Tukey)
p: p value for comparing between the studied groups
p0: p value for comparing between Control and each other group
p1: p value for comparing between 5h and 5b
p2: p value for comparing between 5h and Dox
p3: p value for comparing between 5b and Dox
DNA content in the cell cycle analysis was quantified with the help ofa FACS Calibur flow
cytometer at 488 nm according to the manufacturer's instructions. Briefly, 2 × 10^5 cells/well were
cells were washed two times and resuspended in ice-cold phosphate buffer saline PBS. After
washing, 0.7 ml absolute ethanol was then added, followed by incubation at −20°C for 20 min.
After washing, 500 μl RNase was added, followed by incubation for 30 min. PI was then added,
followed by incubation for 30 min (light was avoided).

Data set [4] has as its system normal breast cell line (MCF-10a). The data set is described as follows: MTT cytotoxicity assay, normal breast cell line MCF-10a. The format is cell-based. The following applies: Homo sapiens, 24 h treatment, read-out: IC50 against MCF-10a (normal cell). On the procedure:
as §2, §6, §7, §1
Means with any Common letter (a-e) are not significant (OR Means with totally Different letters (a-e) are significant) Annexin V-FITC/PI Apoptosis Induction Analysis 3
Apoptosis detection in MCf-7 cells was assessed using BioVision® annexin‐V‐FITC apoptosis detection kit according to the manufacturer's instructions and quantified by flow cytometry at 488
On the technique in general: Tetrazolium assays rely on reduction of a dye to a coloured formazan, in cell work by metabolically active cells.

Data set [5] has as its system human colon cancer (HCT-116). The data set is described as follows: MTT cytotoxicity assay, HCT-116. The format is cell-based. The following applies: 24 h treatment, read-out: IC50 against HCT-116. The procedure:
as §3, §4, §5, §6, §7, §1, §8

In another data set the test system is calf thymus DNA (ctDNA). Briefly: Terbium (Tb3+) luminescent biosensor detection of induced DNA damage. The format is biochemical. The following applies: for Tb luminescence enhancement (induced DNA damage): ctDNA incubated with compound 24 h, emission 545 nm, excitation 270 nm, compared with ctDNA-Tb mixture; for Concentration at which Tb luminescence stops increasing (maximum DNA damage) / LOD (limit of detection; minimum concentration inducing detectable damage in ctDNA) / LOQ (limit of quantitation): ctDNA, 24 h incubation. From the text:
Luminescence studies were accomplished in order to examine the possible DNA interaction with the studied compounds. Many luminescent biosensors are reported in literature for studying the possibility of DNA interaction with small molecules. […] Figure 5 presents a schematic diagram for the fluorometric detection of the induced DNA damage using Tb biosensor. Tb^3+ ion in the Tb luminescent probe is a trivalent lanthanide cation having low intrinsic luminescence in aqueous solutions[45]^,[46]. When Tb biosensor is added to a solution of DNA, it interacts differently with double-stranded DNA (dsDNA) and single-stranded DNA (ssDNA). With dsDNA, Tb^3+ ions are electrostatically attracted to the negatively charged phosphate backbone of the DNA. […] Therefore, the assessed compound damages dsDNA, ssDNA sites would be formed opposite to the site of damage and Tb^3+ would directly coordinate to the unpaired nucleobases in this single-stranded site.
For investigating the DNA interaction potential of the fourteen studied compounds, calf thymus DNA (ctDNA) was incubated with each compound for 24 h and then Tb was added to each mixture. Doxorubicin (DOX), a commonly used reference for DNA damaging agent was used and treated the same condition as the studied compounds. Tb luminescent intensity was measured at λmax = 545 nm after excitation at λmax = 270 nm.
Several concentrations within the range of 0.1 pM–200.0 μM of each of the studied compounds were incubated with ctDNA for 24 h. After which, Tb solution was added to aliquots of such mixtures and the luminescence intensity was recorded. Figure 7 presents Tb luminescence intensity as a function of the compound concentration for various compound/ctDNA/Tb mixtures. At minimum concentration of the studied compounds, minimum Tb luminescence was recorded. This reflects that the DNA molecule is undamaged, intact and acquiring a double helical structure. In this conformation, Tb ions are electrostatically attracted to the negatively charged DNA-phosphate backbone showing no increase in its luminescence. For solutions with higher concentrations of compounds 5b, 5h, and 5j (Figure 7a,c,and d). Tb fluorescence increased proportionally with the concentration until a concentration of 100 and 60 μM for compounds 5b, 5h, and 5j, respectively, where no further increase in the fluorescence occurs. This reflects that more DNA damage is induced with increasing concentrations of the three compounds. At concentrations higher than 100 and 60 μM for compounds 5b, 5h, and 5j, respectively, Tb luminescence remains constant at high fluorescence levels. […] Table 1 illustrates the analytical parameters elucidated as shown in Figure 7 for the quantification of the induced DNA damage by the studied compounds. The linearity parameters were calculated from the calibration curve in Figure 7-inset in order to obtain the minimum concentration of the studied compounds that would induce DNA damage.
Fluorescence measurements: Fluorescence spectra were measured between 290 and 800 nm with excitation at 270 nm of 100 µL solutions in a 1 cm path length Suprasil quartz fluorescence cuvette.
The PerkinElmer LS 55 fluorescence spectrophotometer was used to measure the fluorescence. After 24 h of incubation in buffer solution (40 mM Tris, 10 mM NaCl, pH 7.5), aliquots of each DNA-Compound mixture were combined with TbCl3 to confirm DNA damage. The final concentrations were […] ctDNA, 3 mM TbCl3, and 50 µM of each compound in buffer solution (40 mM Tris, 10 mM NaCl, pH 7.5). Calf thymus DNA (ctDNA) was combined with various quantities of each substance, ranging from 0.1 pM to 200 µM, for the experiment. The ultimate concentrations of […] ctDNA and 3 mM were achieved by adding Tb3 + solution to the ctDNA/compound combinations in buffer solution (40 mM Tris, 10 mM NaCl, pH 7.5) after 24 h of incubation.[44]
All chemicals, solvents, media and kits were purchased from commercial suppliers. […]

Data set [6] deals with hepatocellular carcinoma (HepG2). Briefly: MTT cytotoxicity assay, HepG2. The format is cell-based. The following applies: Homo sapiens, 24 h treatment, read-out: IC50 against HepG2. On the procedure: as §2, §3, §4, §5, §6, §7, §1, §8
In data set [7] the test system is MCF-7 cells. The data set is described as follows: Annexin V-FITC/PI apoptosis induction analysis (flow cytometry). The format is cell-based, human. Conditions: MCF-7, compound at its IC50, 24 h.

Structures are written as SMILES. Several values for one entry are separate records, joined by “and”; a condition that tells them apart may be missing. Equal values may be shown once.

A word on the IC50: it is the concentration that inhibits the measured activity by half. A word on the melting point: it is the temperature of the solid-liquid transition.

T1 sequence (Q02880 whole entry): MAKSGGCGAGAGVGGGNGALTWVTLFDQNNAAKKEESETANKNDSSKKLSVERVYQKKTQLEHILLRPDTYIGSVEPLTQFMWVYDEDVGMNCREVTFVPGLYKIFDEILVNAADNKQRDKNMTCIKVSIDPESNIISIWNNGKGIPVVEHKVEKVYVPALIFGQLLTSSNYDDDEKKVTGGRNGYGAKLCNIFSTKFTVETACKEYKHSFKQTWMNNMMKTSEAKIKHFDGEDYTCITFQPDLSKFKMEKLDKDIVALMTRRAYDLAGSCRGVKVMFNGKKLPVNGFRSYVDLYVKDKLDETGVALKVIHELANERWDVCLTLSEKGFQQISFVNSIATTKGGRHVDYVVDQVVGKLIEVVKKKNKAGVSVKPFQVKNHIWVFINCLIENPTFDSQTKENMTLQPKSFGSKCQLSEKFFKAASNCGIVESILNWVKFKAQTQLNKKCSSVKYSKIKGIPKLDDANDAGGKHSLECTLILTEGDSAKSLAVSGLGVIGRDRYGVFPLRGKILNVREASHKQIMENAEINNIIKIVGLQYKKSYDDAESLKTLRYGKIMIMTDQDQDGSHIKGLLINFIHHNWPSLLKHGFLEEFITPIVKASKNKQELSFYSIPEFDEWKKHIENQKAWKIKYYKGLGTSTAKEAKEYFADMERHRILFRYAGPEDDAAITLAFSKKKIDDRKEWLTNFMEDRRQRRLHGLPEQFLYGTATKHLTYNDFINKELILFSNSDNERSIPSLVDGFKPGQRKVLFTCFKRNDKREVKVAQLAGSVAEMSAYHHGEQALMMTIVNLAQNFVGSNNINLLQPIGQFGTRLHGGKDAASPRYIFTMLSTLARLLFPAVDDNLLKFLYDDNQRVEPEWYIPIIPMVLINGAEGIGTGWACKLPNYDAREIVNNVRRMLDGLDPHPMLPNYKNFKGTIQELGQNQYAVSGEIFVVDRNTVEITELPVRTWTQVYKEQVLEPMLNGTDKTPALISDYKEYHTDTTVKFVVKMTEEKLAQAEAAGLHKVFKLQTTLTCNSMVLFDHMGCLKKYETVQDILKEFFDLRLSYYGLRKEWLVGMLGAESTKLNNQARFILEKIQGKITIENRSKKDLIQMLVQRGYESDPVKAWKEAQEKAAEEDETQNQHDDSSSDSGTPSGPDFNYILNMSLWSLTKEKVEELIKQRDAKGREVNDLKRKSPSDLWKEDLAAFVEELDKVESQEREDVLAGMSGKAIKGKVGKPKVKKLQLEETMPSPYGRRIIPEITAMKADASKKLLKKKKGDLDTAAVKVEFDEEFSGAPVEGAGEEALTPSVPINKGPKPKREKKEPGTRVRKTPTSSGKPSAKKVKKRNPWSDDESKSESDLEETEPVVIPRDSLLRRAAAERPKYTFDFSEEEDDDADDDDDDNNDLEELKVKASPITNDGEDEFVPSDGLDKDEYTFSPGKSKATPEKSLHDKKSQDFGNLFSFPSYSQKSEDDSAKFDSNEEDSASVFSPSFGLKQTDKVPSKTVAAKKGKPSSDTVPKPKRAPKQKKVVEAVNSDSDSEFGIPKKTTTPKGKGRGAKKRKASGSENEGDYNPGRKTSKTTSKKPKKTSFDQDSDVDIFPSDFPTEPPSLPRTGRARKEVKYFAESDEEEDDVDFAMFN

Consider `O=C1C(=Nn2cc(-c3ccc(Cl)cc3)n(-c3ccccc3)c2=S)c2cccc3cccc1c23` [5h, 2-((4-(4-chlorophenyl)-3-phenyl-2-thioxo-2,3-dihydro-1H-imidazol-1-yl)imino)-acenaphthylen-1(2H)-one], for which the melting point was 260 to 262 °C. In addition, the IC50 in [1] is 340 nM. For the same compound, in [2], the IC50 turned out to be 2.65 µM, the “folds more active than doxorubicin” value is 3 folds and the “Selectivity Index (SI)” value came out at 49.27. Further, in the data set on MCF-7 cells [3], the “Phase of cell cycle arrest” value is reported as “S phase”, the “Cell cycle arrest (%) G0-G1” value came to 48.6 ± 0.73%, the “Cell cycle arrest (%) G2/M” value was determined as 9.7 ± 0.36% and the “Cell cycle arrest (%) S” value came to 41.7 ± 0.39%. For the same compound, in data set [4], the IC50 came out at 131 µM. Besides, in data set [5], the IC50 was determined as 43.5 µM. Moreover, in the data set on calf thymus DNA (ctDNA), the “Tb luminescence enhancement (induced DNA damage)” value (from here on “Tb luminescence enhancement”) is on record as “significant enhancement”, the “Concentration at which Tb luminescence stops increasing (maximum DNA damage)” value stood at 100 µM, the “LOD (limit of detection; minimum concentration inducing detectable damage in ctDNA)” value came to 7.14 nM and the “LOQ (limit of quantitation)” value was 23.8 nM. In addition, the IC50 in [6] is 4.93 µM. Besides, in the data set with MCF-7 cells [7], the “Apoptosis results: Early apoptosis” value is listed as 16.5 ± 0.64%; the “Apoptosis results: Late apoptosis” value was 28.4 ± 0.62% and 28.52%; the “Apoptosis results: Necrosis” value was found to be 7.5 ± 0.68%; the “Apoptosis results: Total” value amounted to 52.5 ± 0.68%.

As for `O=C1C(=Nn2cc(-c3ccccc3)n(-c3ccccc3)c2=S)c2cccc3cccc1c23` [5b, 2-((3,4-Diphenyl-2-thioxo-2,3-dihydro-1H-imidazol-1-yl)imino)acenaphthylen-1(2H)-one], the melting point lay in the range of 240 to 242 °C. For the same compound, in data set [2], the IC50 is 5.11 µM, the “folds more active than doxorubicin” value was 1.5 folds and the “Selectivity Index (SI)” value came out at 17.58. For the same compound, in the data set on MCF-7 cells [3], the “Phase of cell cycle arrest” value is on record as “S phase”, the “Cell cycle arrest (%) G0-G1” value turned out to be 52.7 ± 0.30%, the “Cell cycle arrest (%) G2/M” value was 13.4 ± 0.41% and the “Cell cycle arrest (%) S” value was determined as 33.8 ± 0.70%. In addition, in [4], the IC50 is 89.8 µM. In addition, the IC50 in data set [5] turned out to be 17.1 µM. Also, in the data set on calf thymus DNA (ctDNA), the “Tb luminescence enhancement” value is reported as “significant enhancement”, the “Concentration at which Tb luminescence stops increasing (maximum DNA damage)” value came out at 100 µM, the “LOD (limit of detection; minimum concentration inducing detectable damage in ctDNA)” value was 7.78 nM and the “LOQ (limit of quantitation)” value worked out at 25.9 nM. For the same compound, the IC50 in [6] was 7.4 µM. Moreover, in the data set with MCF-7 cells [7], the “Apoptosis results: Early apoptosis” value is listed as 15.3 ± 0.50%; the “Apoptosis results: Late apoptosis” value is 22.7 ± 0.43% and 22.69%; the “Apoptosis results: Necrosis” value was 8.7 ± 0.44%; the “Apoptosis results: Total” value worked out at 46.6 ± 0.57%.

As to `COc1cccc2c1C(=O)c1c(O)c3c(c(O)c1C2=O)C[C@@](O)(C(=O)CO)C[C@@H]3O[C@H]1C[C@H](N)[C@H](O)[C@H](C)O1` [doxorubicin, reference compound], in data set [2], the IC50 stood at 8.24 µM and the “Selectivity Index (SI)” value was 3.9. For the same compound, in the data set on MCF-7 cells [3], the “Phase of cell cycle arrest” value is listed as “G1/S phase”. In addition, in the data set on MCF-7 cells [3] (listed as Dox), the “Cell cycle arrest (%) G0-G1” value was 63.5 ± 0.51%, the “Cell cycle arrest (%) G2/M” value stood at 2.4 ± 0.73% and the “Cell cycle arrest (%) S” value is 34.2 ± 0.22%. Also, the IC50 in data set [4] was found to be 32.4 µM. In the data set on calf thymus DNA (ctDNA), the “Tb luminescence enhancement” value is reported as “significant enhancement”, the “LOD (limit of detection; minimum concentration inducing detectable damage in ctDNA)” value stood at 4.09 nM and the “LOQ (limit of quantitation)” value is reported as 13.7 nM. Besides, in the data set with MCF-7 cells [7], the “Apoptosis results: Early apoptosis” value is given as 8.3 ± 0.53%, the “Apoptosis results: Late apoptosis” value was 31.3 ± 0.62% and the “Apoptosis results: Total” value is 46.2 ± 0.53%. Moreover, in the data set on MCF-7 cells [7] (listed as Dox), the “Apoptosis results: Early apoptosis” value stood at 8.3 ± 0.53%, the “Apoptosis results: Late apoptosis” value amounted to 31.3 ± 0.62% and the “Apoptosis results: Necrosis” value is on record as 6.6 ± 0.61%.

The record behind these values is PMC10946275, “New imidazole-2-thiones linked to acenaphythylenone as dual DNA intercalators and topoisomerase II inhibitors: structural optimization, docking, and apoptosis studies” (Journal of Enzyme Inhibition and Medicinal Chemistry, 2024).
